Earlier results, collected in paper PMC9150182 (ACS Sensors, 2022).

What was measured:
[1] = tested on: 5-HT4 isoform g 302Y>F; conditions: 302Y>F variant, COS7 cells
[2] = target: T1, 5-HT1A (Homo sapiens, UniProt P08908); conditions: yeast, Gpa1/Gαi3 chimera
T1 sequence (P08908 1-422): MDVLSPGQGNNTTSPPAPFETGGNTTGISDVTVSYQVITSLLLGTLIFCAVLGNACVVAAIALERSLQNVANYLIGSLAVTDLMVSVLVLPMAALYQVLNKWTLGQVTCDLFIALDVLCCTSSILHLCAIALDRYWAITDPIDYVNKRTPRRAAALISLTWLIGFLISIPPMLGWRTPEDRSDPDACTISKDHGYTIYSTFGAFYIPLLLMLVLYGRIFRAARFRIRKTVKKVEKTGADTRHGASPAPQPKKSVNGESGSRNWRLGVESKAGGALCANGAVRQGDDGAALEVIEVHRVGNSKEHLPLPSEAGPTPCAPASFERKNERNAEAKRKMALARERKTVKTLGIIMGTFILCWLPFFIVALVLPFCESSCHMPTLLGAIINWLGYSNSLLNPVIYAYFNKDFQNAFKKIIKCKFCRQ

[3] = tested on: 5-HT4 isoform g 302Y>F; conditions: 302Y>F variant, COS7 cells; remark: listed apart in the source

SMILES	decrease of affinity to the receptor [1] [fold]	increase over basal fluorescence after activation with serotonin [2] [%]	effect of variant on serotonin-induced activity [3]
Cn1cc(C(=O)OCC2CCN(CCNS(C)(=O)=O)CC2)c2ccccc21 [GR113808]	13	–	–
NCCc1c[nH]c2ccc(O)cc12 [serotonin]	–	300	did not affect serotonin-induced activity
